In US8828954B2, “Use for scopolin and derivatives thereof” (Yonsei University Technology Holdings, Inc., priority 2010, dated 2014):
Marks after values point to notes of the source that are not given here.

Columns and labels:
3T3-L1 cells = assay: Inhibition of adipocyte differentiation in 3T3-L1 cells (Oil Red O staining); type: cell-based, mouse; conditions: scopolin 0.1, 1, 10, 50 and 100 μM, 14 days, FIG. 1
Procedure: Mouse adipocyte cell line (3T3-L1) was used to investigate the effect of scopolin on differentiation and growth of adipocytes. The preadipocytes, 3T3-L1 cells, were seeded on a 12-well plate and cultured to confluency using Dulbecco's modified Eagle's medium (DMEM) containing 1% penicillin-streptomycin, 1% non-essential amino acid and 10% fatal bovine serum (FBS), in a 5% CO2 incubator at 37° C. The 3T3-L1 cells grown to confluency were cultured for 2 days in MDI medium containing 0.5 mM isobutylmethylxanthine, 1 μM dexamethasone and 1 μg/mL insulin to differentiate them into differention adipocytes. Then, the cells were further cultivated in DMEM containing 1 μg/mL insulin to differentiate them into mature adipocytes. The cells were further cultured for 10 more days while replacing DMEM every other day to obtain fully differentiated adipocytes.
From the first day when MDI was added to the 3T3-L1 cells, scopolin was treated at concentrations of 0.1, 1, 10, 50 and 100 μM with 2-day intervals. Scopolin was used after being dissolved in DMSO. Only DMSO was added to the negative control group. […] In order to measure the level of triglyceride contained in the differentiated 3T3-L1 cells, the stained lipid droplets were dissolved in 1 mL of isobutanol and optical density (OD) value was measured at 600 nm.

[1] = Body weight and visceral fat weight in high-fat diet fed mice, 10 weeks; type: in vivo, mouse; conditions: 0.02% scopolin in high-fat diet
Procedure: (§1) The obesity-inducing control diet used in the present test was high-fat diet (HFD: 40% fat calorie, 17 g lard+3% corn oil/100 g diet). Diets supplemented with scopolin had the same composition as HF, except that each derivative was included at 0.02%. The diabetic drug metformin was added at 0.1% or the hyperlipidemic drug atorvastatin was added at 0.01% to HFD as controls. The normal diet (ND) was prepared according to the AIN-76 rodent diet composition (American Institute of Nutrition, Report of the American Institute of Nutrition ad hoc committee on standards for nutritional studies. J. Nutr., 107: 1340-1348, (1977)) (Table 1).
(§2) 5-week-old male […] mice (Orient, Korea) were accustomed to the laboratory environment for 1 week while feeding solid feed. Then, they were randomly divided into high-fat diet and test groups and bred for a total of 10 weeks. The diet was given between 10 and 11 a.m. every day together with water. Food intake was measured every day and body weight was measured once a week. In order to avoid transient body weight increase after feed intake, body weight was measured 2 hours after removing the feed.
(§3) After fasting the test animal for at least 12 hours and anesthetizing with diethyl ether, blood, liver and visceral fat (epididymal fat, perirenal fat, mesenteric fat and retroperitoneal fat) were taken and weighed after washing with 0.1 M PBS (pH 7.4). Blood taken from the abdominal aorta was centrifuged at 1000×g for 15 minutes for the separation of plasma.

[2] = Plasma lipid and glucose levels in high-fat diet fed mice; type: in vivo, mouse; conditions: SPID group, 10 weeks
Procedure: as §1, §2, §3
(§4) After 10 weeks of breeding, total cholesterol, HDL-cholesterol, triglyceride and glucose levels in the plasma and lipid levels in the liver tissue were measured as follows: Total cholesterol, HDL-cholesterol, triglyceride, free fatty acid and glucose levels in the plasma were measured twice for each using a commercially available kit (Bio Clinical System). The level of LDL+VLDL in plasma was calculated by subtracting HDL level from the total cholesterol level. The activities of ALT (alanine aminotransferase) and AST (aspartate aminotransferase) used as liver function indicator were measured using a commercially available kit (Bio Clinical System, Korea).

[3] = Liver weight and liver tissue lipid levels in high-fat diet fed mice; type: in vivo, mouse; conditions: SPID group, 10 weeks
Procedure: as §1, §2, §3
In addition, lipids were extracted from the liver tissue according to Folch et al.'s method (Folch J, Lees M, Sloane Stanley G H. A simple method for the isolation and purification of total lipides from animal tissues. J Biol. Chem. 1957; 226:497-509). After adding 1 mL of distilled water to 0.25 g of the liver tissue, the liver tissue was homogenized using a Polytron homogenizer (IKA-Werke GmbH & Co., Ultra-Turrax, Staufen, Germany). After adding 5 mL of chloroform:methanol solution (2:1, v/v) to the homogenate and mixing well, the mixture was centrifuged at 1000×g for 10 minutes. After adding 2 mL of chloroform:methanol solution (2:1, v/v) again to the supernatant, the same procedure was repeated to completely separate the lipid components of the liver. After adding 3 mL of chloroform:methanol:0.05% CaCl2 (3:48:47, v/v/v) solution to the remaining pellets and mixing well for 1 minute, followed by centrifugation at 1000×g for 10 minutes, the resulting pellets were completely dried with nitrogen gas. The dried lipids were dissolved in 1 mL of methanol and then analyzed. The commercially available kits (Bio Clinical System, Korea) were used to measure the levels of triglyceride, cholesterol and free fatty acids of the liver tissue.

[4] = ALT and AST activities (liver function indicators) in high-fat diet fed mice; type: in vivo, mouse; conditions: SPID group, 10 weeks
Procedure: as §1, §2, §3, §4

C/EBPα = assay: RT-PCR of C/EBPα mRNA in epididymal fat tissue; type: in vivo, mouse; conditions: SPID vs HFD, relative to GAPDH, FIG. 4
Procedure: (§5) Accordingly, to identify that scopolin inhibits directly obesity-related gene expressions, the inventors examined whether obesity-related gene is expressed according to scopolin treatment through RNA was isolated from epididymal fat tissues obtained in the example 3 and performed RT-PCR.
(§6) First, after adding 1 mL of Trizol agent per 0.1 g of epididymal fat tissues, the mixture was homogenized and centrifuged at 12,000×g for 10 min at 4° C. The supernatant was transferred to a new tube and 200 μl of chloroform was added to the tube, followed by vortexing. The same procedure was repeated twice and then the supernatant was transferred to a new tube, followed by addition of isopropanol and the supernatant at 1:1 ratio. The mixture was vigorously shaken 10 times and then incubated for 10 min at room temperature, followed by centrifugation at 12,000×g for 10 min at 4° C. to remove the supernatant. After adding 1 mL of 70% ethanol to the remaining pellet, it was centrifuged at 7,500×g for 5 min at 4° C. After removing the ethanol, the RNA pellet contained in the tube was dried for 5 min at 4° C. and dissolved in nuclease-free water. The RNA concentration of sample was measured at a wavelength of 260 nm and 280 nm using a UV/VIS spectrophotometer (Beckman coulter, DU730) and the integrity of RNA sample was verified by agarose gel electrophoresis. […]

PPARγ2 = assay: RT-PCR of PPARγ2 mRNA in epididymal fat tissue; type: in vivo, mouse; conditions: SPID vs HFD, relative to GAPDH, FIG. 4
Procedure: as §5, §6

aP2 = assay: RT-PCR of aP2 mRNA in epididymal fat tissue; type: in vivo, mouse; conditions: SPID vs HFD, relative to GAPDH, FIG. 4
Procedure: as §5, §6

UCP1 = assay: RT-PCR of UCP1 mRNA in epididymal fat tissue; type: in vivo, mouse; conditions: HFD-induced decrease, relative to GAPDH, FIG. 5
Procedure: as §5, §6

UCP3 = assay: RT-PCR of UCP3 mRNA in epididymal fat tissue; type: in vivo, mouse; conditions: HFD-induced decrease, relative to GAPDH, FIG. 5
Procedure: as §5, §6

[5] = tested on: mouse intraperitoneal macrophages; conditions: macrophages stimulated with ionophore; J Nat Prod 1996; cited from earlier work
acetylcholine esterase = acetylcholine esterase (Homo sapiens, UniProt P22303); conditions: J Med Chem 2004; cited from earlier work
Chain of acetylcholine esterase (P22303 32-614): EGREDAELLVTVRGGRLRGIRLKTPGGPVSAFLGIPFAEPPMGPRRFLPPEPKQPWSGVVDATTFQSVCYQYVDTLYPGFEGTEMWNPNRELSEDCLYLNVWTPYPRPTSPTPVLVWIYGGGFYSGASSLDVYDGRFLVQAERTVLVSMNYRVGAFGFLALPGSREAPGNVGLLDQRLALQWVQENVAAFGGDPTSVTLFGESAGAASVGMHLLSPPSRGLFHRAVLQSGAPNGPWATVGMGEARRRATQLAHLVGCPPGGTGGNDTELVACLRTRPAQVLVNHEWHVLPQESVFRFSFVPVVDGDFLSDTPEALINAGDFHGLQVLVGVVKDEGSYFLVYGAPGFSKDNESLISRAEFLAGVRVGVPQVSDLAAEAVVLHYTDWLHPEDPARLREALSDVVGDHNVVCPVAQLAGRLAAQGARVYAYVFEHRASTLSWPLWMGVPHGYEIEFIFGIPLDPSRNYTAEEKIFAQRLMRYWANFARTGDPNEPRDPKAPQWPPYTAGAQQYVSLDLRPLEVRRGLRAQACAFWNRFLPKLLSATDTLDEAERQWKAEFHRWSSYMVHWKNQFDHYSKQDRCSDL

With `COc1cc2ccc(=O)oc2cc1OC1OC(CO)C(O)C(O)C1O` [scopolin, 7-(beta-D-glucopyranosoyloxy)-6-methoxy-2H-1-benzopyran-2-one] as the compound, how does the “differentiation of the preadipocytes (Oil Red O staining)” value (3T3-L1 cells) read?
The value was “reduced the differentiation of the preadipocytes in a concentration-dependent manner”.

What about the “decrease of cumulative body weight gain as compared to HFD” value [1] of the same compound?
The value was 22%.

And the “decrease of final body weight as compared to HFD” value [1]?
The value was 10%.

And the “reduction of epididymal fat-pad weight as compared to HFD” value [1]?
Its value is 29%.

What about the “reduction of mesenteric fat-pad weight as compared to HFD” value [1] of the same compound?
The value was 28%.

And the “reduction of perirenal fat-pad weight as compared to HFD” value [1]?
The value was 33%.

And the “reduction of retroperitoneal fat-pad weight as compared to HFD” value [1]?
The value was 31%.

And the “reduction of total visceral fat weight as compared to HFD” value [1]?
Its value is 30%.

What about the “lower plasma level of LDL+VLDL cholesterol as compared to HFD” value [2] of the same compound?
The value was 30%.

And the “lower plasma level of free fatty acid as compared to HFD” value [2]?
The value was 27%.

And the “lower plasma level of total cholesterol as compared to HFD” value [2]?
The value was 23%.

And the “lower plasma level of triglyceride as compared to HFD” value [2]?
The value was 28%.

What about the “reduction of the fasting blood sugar level as compared to HFD” value [2] of the same compound?
The value was 16%.

And the Free fatty acid ([2]; plasma, mean±SEM, n=8)?
The Free fatty acid was 635 ± 65.6^b μEq/g.

And the Total cholesterol ([2]; plasma, mean±SEM, n=8)?
The Total cholesterol was 5.07 ± 0.26^b mmol/l.

And the Triglyceride ([2]; plasma, mean±SEM, n=8)?
Its Triglyceride is 0.65 ± 0.07^b mmol/l.

What about the “LDL + VLDL cholesterol” value ([2]; plasma, total cholesterol minus HDL) of the same compound?
Its value is 3.88 ± 0.27^b mmol/l.

What about the Glucose ([2]; plasma, fasting, mean±SEM, n=8) of the same compound?
The Glucose was 7.51 ± 0.32^b mmol/l.

And the “decrease of cholesterol in liver tissue as compared to HFD” value [3]?
Its value is 21%.

What about the “decrease of free fatty acid in liver tissue as compared to HFD” value [3] of the same compound?
Its value is 33%.

What about the “decrease of triglyceride in liver tissue as compared to HFD” value [3] of the same compound?
The value was 22%.

What about the “reduction of absolute weight of liver as compared to HFD” value [3] of the same compound?
The value was 23%.

What about the Liver weight ([3]; mean±SEM, n=8) of the same compound?
The Liver weight was 1.7 ± 0.14^b g.

What about the Cholesterol ([3]; liver tissue, mean±SEM, n=8) of the same compound?
Its Cholesterol is 102.9 ± 5.4^b μmol/g.

What about the Free fatty acid ([3]; liver tissue, mean±SEM, n=8) of the same compound?
Its Free fatty acid is 33.6 ± 4.6^b μEq/g.

And the Triglyceride ([3]; liver tissue, mean±SEM, n=8)?
The Triglyceride was 55.6 ± 5.3^b μmol/g.

And the “decrease of plasma activity of ALT as compared to HFD” value [4]?
Its value is 46%.

What about the “decrease of plasma activity of AST as compared to HFD” value [4] of the same compound?
The value was 41%.

And the “ALT (alanine aminotransferase)” value ([4]; plasma activity, mean±SEM, n=8)?
Its value is 5.55 ± 0.78^b IU/L.

And the “AST (aspartate aminotransferase)” value ([4]; plasma activity, mean±SEM, n=8)?
Its value is 5.80 ± 0.43 IU/L.

What about the “C/EBPα mRNA expression level” value (C/EBPα) of the same compound?
The value was “significantly reduced expressions”.

And the “PPARγ2 mRNA expression level” value (PPARγ2)?
The value was “significantly reduced expressions”.

What about the “aP2 mRNA expression level” value (aP2) of the same compound?
The value was “significantly reduced expressions”.

And the “UCP1 mRNA expression level” value (UCP1)?
Its value is “significantly reversed”.

What about the “UCP3 mRNA expression level” value (UCP3) of the same compound?
The value was “significantly reversed”.

What about the eicosanoid release [5] of the same compound?
The eicosanoid release was “suppression of eicosanoid release”.

And the acetylcholine esterase inhibition (acetylcholine esterase)?
The acetylcholine esterase inhibition was “inhibits acetylcholine esterase”.
